Measured values from patent publication US6362369B1, “Phthalic acid diamide derivatives fluorine-containing aniline compounds as starting material, agricultural and horticultural insecticides, and a method for application of the insecticides” (Nihon Nohyaku Co., Ltd., priority 1997, dated 2002).

How the values were obtained:
[1] = system: rice leafroller (Cnaphalocrocis medinalis); assay: Insecticidal effect on rice leafroller (Test Example 3); format: in vivo; settings: 500 ppm, 25° C., humidity 70%; for Insecticidal effect, Test Example 3: rice leafroller third-instar larvae, rice lamina immersed, four days after inoculation; for Insecticidal effect (Test Example 3), judged from mortality: rice lamina dip, third-instar larvae of rice leafroller, 4 days after inoculation
How it was run: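 Groups of 10 third-instar larvae, in triplicate, are placed on air-dried lamina resting on wet filter paper. Incubation runs four days at 25° C with 70% humidity before survivors and dead are tallied.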

[2] = system: diamondback moth (Plutella xylostella); assay: Insecticidal effect on diamondback moth (Test Example 1); format: in vivo; settings: diamondback moth; for Insecticidal effect, Test Example 1: mortality judged by criterion of Test Example 1; for Insecticidal effect (Test Example 1), judged from mortality: judged by the criterion of Test Example 1
How it was run: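 Chinese cabbage seedlings carrying eggs laid by released adult moths were immersed in treatment, air-dried and held at 25° C. Hatched insects were counted six days after immersion, and mortality was calculated and scored against a fixed criterion. Three replicate groups of 10 insects were used.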

Compound	Insecticidal effect, Test Example 3 [1]	Insecticidal effect, Test Example 1 [2]	Insecticidal effect (Test Example 3), judged from mortality [1]	Insecticidal effect (Test Example 1), judged from mortality [2]
CCCNC(=O)c1cccc(I)c1C(=O)Nc1ccc(C(F)(F)C(F)(F)F)cc1C [compound 1304]	A (100)	A (100)	–	–
CNC(=O)c1cccc(I)c1C(=O)Nc1ccc(C(F)(F)C(F)(F)F)cc1C [compound 1312]	A (100)	A (100)	–	–
CCC(O)CNC(=O)c1c(Cl)cccc1C(=O)Nc1ccc(C(F)(F)C(F)(F)F)cc1C (stereo not shown) [compound 1318]	A (100)	A (100)	–	–
Cc1cc(C(F)(F)C(F)(F)F)ccc1NC(=O)c1cccc(Cl)c1C(=O)NC(C)c1ccccc1 (stereo not shown) [compound 1321]	A (100)	A (100)	–	–
Cc1cc(CCC(C)(C)C)ccc1NC(=O)c1cccc(Cl)c1C(=O)NC(C)C [compound 1323]	A (100)	A (100)	–	–
Cc1cc(C#Cc2ccccc2)ccc1NC(=O)c1cccc(Cl)c1C(=O)NC(C)C [compound 1325]	A (100)	A (100)	–	–
Cc1cc(C(F)(F)C(F)(F)F)ccc1NC(=O)c1cccc(Cl)c1C(=O)NCCCc1ccccc1 [compound 1331]	A (100)	A (100)	–	–
Cc1cc(C(F)(F)C(F)(F)F)ccc1NC(=O)c1cccc(Cl)c1C(=O)NCc1ccc(Cl)cc1 [compound 1333]	A (100)	A (100)	–	–
Cc1ccccc1CNC(=O)c1c(Cl)cccc1C(=O)Nc1ccc(C(F)(F)C(F)(F)F)cc1C [compound 1337]	A (100)	A (100)	–	–
Cc1cccc(CNC(=O)c2c(Cl)cccc2C(=O)Nc2ccc(C(F)(F)C(F)(F)F)cc2C)c1 [compound 1339]	A (100)	A (100)	–	–
Cc1cccc(CNC(=O)c2cccc(Cl)c2C(=O)Nc2ccc(C(F)(F)C(F)(F)F)cc2C)c1 [compound 1340]	A (100)	A (100)	–	–
COc1ccccc1CNC(=O)c1c(Cl)cccc1C(=O)Nc1ccc(C(F)(F)C(F)(F)F)cc1C [compound 1343]	A (100)	A (100)	–	–
Cc1cc(C(F)(F)C(F)(F)F)ccc1NC(=O)c1cccc(Cl)c1C(=O)NCc1ccc(Cl)c(Cl)c1 [compound 1351]	A (100)	A (100)	–	–
Cc1cc(C(F)(F)C(F)(F)F)ccc1NC(=O)c1c(Cl)cccc1C(=O)NCc1ccc(Cl)c(Cl)c1 [compound 1352]	A (100)	A (100)	–	–
Cc1cc(C(F)(F)C(F)(F)F)ccc1NC(=O)c1cccc(Cl)c1C(=O)NCCc1cccc(Cl)c1 [compound 1358]	C (89-80)	A (100)	–	–
Cc1cc(C(F)(F)C(F)(F)F)ccc1NC(=O)c1cccc(Cl)c1C(=O)NCCc1ccc(Cl)cc1 [compound 1360]	C (89-80)	A (100)	–	–
Cc1cc(C(F)(F)C(F)(F)F)ccc1NC(=O)c1cccc(Cl)c1C(=O)NCCOc1cccc(Cl)c1 [compound 1370]	A (100)	A (100)	–	–
Cc1cc(C(F)(F)C(F)(F)F)ccc1NC(=O)c1ccccc1C(=O)NC(C)(C)CO [compound 1381]	C (89-80)	A (100)	–	–
Cc1cc(C(F)(F)C(F)(F)F)ccc1NC(=O)c1cccc(Cl)c1C(=O)Nc1ccco1 [compound 1390]	A (100)	A (100)	–	–
Cc1cc(C(F)(F)C(F)(F)F)ccc1NC(=O)c1cccc(Cl)c1C(=O)NC1CCCO1 (stereo not shown) [compound 1392]	A (100)	A (100)	–	–
Cc1cc(C(F)(F)C(F)(F)F)ccc1NC(=O)c1c(Cl)cccc1C(=O)NC1CCCO1 (stereo not shown) [compound 1393]	A (100)	A (100)	–	–
Cc1cc(C(F)(F)C(F)(F)F)ccc1NC(=O)c1cccc(Cl)c1C(=O)NCc1ccncc1 [compound 1394]	A (100)	A (100)	–	–
CC(C)NC(=O)c1c(I)cccc1C(=O)Nc1ccc(Br)cc1C(F)(F)C(F)(F)F [compound 1409]	A (100)	A (100)	–	–
CC(C)NC(=O)c1c(I)cccc1C(=O)Nc1ccc(C(F)(F)C(F)(F)F)cc1C(F)(F)C(F)(F)F [compound 1410]	A (100)	A (100)	–	–

Compound	Insecticidal effect, Test Example 3 [1]	Insecticidal effect, Test Example 1 [2]	Insecticidal effect (Test Example 3), judged from mortality [1]	Insecticidal effect (Test Example 1), judged from mortality [2]
C#CCNC(=O)c1ccccc1C(=O)Nc1ccc(C(F)(F)C(F)(F)F)cc1C [compound 1411]	A (100)	A (100)	–	–
Cc1cc(C(F)(F)C(F)(F)F)ccc1NC(=O)c1c(Cl)cccc1C(=O)NC(C)(C)CO [compound 1415]	A (100)	A (100)	–	–
Cc1cc(C(F)(F)C(F)(F)F)ccc1NC(=O)c1cccc(Cl)c1C(=O)NCc1cccnc1 [compound 1419]	A (100)	A (100)	–	–
Cc1cc(C(F)(F)C(F)(F)F)ccc1NC(=O)c1c(Cl)cccc1C(=O)NCc1cccnc1 [compound 1420]	A (100)	A (100)	–	–
Cc1cc(C(F)(F)C(F)(F)F)ccc1NC(=O)c1c(I)cccc1C(=O)N(C)Cc1ccccc1 [compound 1439]	C (89-80)	A (100)	–	–
CCC(CO)NC(=O)c1cccc(Cl)c1C(=O)Nc1ccc(C(F)(F)C(F)(F)F)cc1C (stereo not shown) [compound 1441]	A (100)	A (100)	–	–
C#CCNC(=O)c1c(I)cccc1C(=O)Nc1ccc(OC(F)F)cc1C [compound 1456]	–	–	A (100)	A (100)
CCN(Cc1ccccc1)C(=O)c1c(Cl)cccc1C(=O)Nc1ccc(C(F)(F)C(F)(F)F)cc1C [compound 1457]	–	–	A (100)	A (100)
Cc1cc(C(F)(F)C(F)(F)F)ccc1NC(=O)c1c(Cl)cccc1C(=O)N[C@H](C)CO [compound 1461]	–	–	A (100)	A (100)
Cc1cc(C(F)(F)C(F)(F)F)ccc1NC(=O)c1c(I)cccc1C(=O)NC(C)CO (stereo not shown) [compound 1465]	–	–	A (100)	A (100)
Cc1cc(C(F)(F)C(F)(F)F)ccc1NC(=O)c1cccc(F)c1C(=O)NCc1ccccc1 [compound 1470]	–	–	A (100)	A (100)
CCNC(=O)c1c(Cl)cccc1C(=O)Nc1ccc(C(F)(F)C(F)(F)F)cc1F [compound 1488]	–	–	A (100)	A (100)
CCNC(=O)c1c(Cl)cccc1C(=O)Nc1ccc(C(F)(F)C(F)(F)C(F)(F)F)cc1F [compound 1490]	–	–	A (100)	A (100)
CCCNC(=O)c1c(Cl)cccc1C(=O)Nc1ccc(C(F)(F)C(F)(F)F)cc1Cl [compound 1492]	–	–	A (100)	A (100)
CCCNC(=O)c1c(Cl)cccc1C(=O)Nc1ccc(C(F)(F)C(F)(F)C(F)(F)F)cc1F [compound 1493]	–	–	A (100)	A (100)
CCNC(=O)c1c(F)cccc1C(=O)Nc1ccc(C(F)(F)C(F)(F)F)cc1F [compound 1510]	–	–	A (100)	A (100)
CC(C)NC(=O)c1c(F)cccc1C(=O)Nc1ccc(C(F)(F)C(F)(F)F)cc1F [compound 1514]	–	–	A (100)	A (100)
CC(C)NC(=O)c1cccc(F)c1C(=O)Nc1ccc(C(F)(F)C(F)(F)F)cc1Cl [compound 1517]	–	–	A (100)	A (100)
Cc1cc(OC(F)(F)F)ccc1NC(=O)c1cccc(I)c1C(=O)NC(C)(C)CO [compound 1519]	–	–	A (100)	A (100)
Cc1cc(C(F)(F)C(F)(F)F)ccc1NC(=O)c1cccc(Cl)c1C(=O)NCc1ccccc1C(F)(F)F [compound 1523]	–	–	A (100)	A (100)
CCN(CC)C(=O)c1c(F)cccc1C(=O)Nc1ccc(OC(F)(F)F)cc1C [compound 1527]	–	–	A (100)	A (100)
CCN(CC)C(=O)c1c(F)cccc1C(=O)Nc1ccc(OC(F)F)cc1C [compound 1528]	–	–	A (100)	A (100)
CCN(CC)C(=O)c1c(F)cccc1C(=O)Nc1ccc(OC(F)(F)C(F)F)cc1C [compound 1529]	–	–	A (100)	A (100)
